The values below come from patent publication US7332615B2, “Hydrophilic analogs of 4,8-dihydrobenzodithiophene-4,8-diones as anticancer agents” (Industrial Technology Research Institute, priority 2004, dated 2008).

Data set [1] deals with NCI-H460. The data set is described as follows: Cytotoxicity Assays Method A (alamarBlue anti-proliferative assay), NCI-H460. It counts as cell-based. The text has this: (§1) Cytotoxicity Assays Method A (HUVEC, MCF-7, HT-29, Hep 3B and NCl-H460) [S. A. Ahmed, R. M. Gogal Jr., and J. E. Walsh, Journal of Immunological Methods 170: 211-224, (1994): M. R. Boyd, Status of the NCl preclinical antitumor drug discovery screen. (Published by J. B. Lippincoft Company, Philadelphia, Pa. 19105, USA) Principles & Practices of Oncology Updates 3 # 10: 1-12, (1989); M. R. Boyd, et al. Data display and analysis strategies for the NCl disease-oriented in vitro antitumor drug screen. In: Cytotoxic anti-cancer drugs: models and concepts for drug discovery and development. Boston: Kluwer Academic, Pages; 11-34, (1992)]
(§2) The test compounds were dissolved in 100% DMSO and then diluted with sterile distilled water to obtain initial working solutions of 20000, 2000, 200, 20 and 2 μM in 80% DMSO. A 200 fold dilution was further made in culture media to generate final assay concentrations of 100, 10, 1, 0.1 and 0.01 μM in 0.4% DMSO.
(§3) Aliquots of 100 μl of cell suspension (about 1.5-3.0×10^3/well) were placed in 96-well microtiter plates in an atmosphere of 5% CO2 at 37° C. After 24 hours, 100 μl of growth medium and 1 μl of test solution or vehicle (80% DMSO) were added respectively per well in duplicate for an additional 72-hour incubation. Thus, the final concentration of DMSO was 0.4%. The test compounds, IIa-1, IIb-1 and VII-1 were evaluated at concentrations of 100, 10, 1, 0.1 and 0.01 μM. At the end of incubation, 20 μl of alamarBlue 90% reagent was added to each well for another 6-hour incubation before detection of cell viability by fluorescent intensity. Fluorescent intensity was measured using a Spectraflour Plus plate reader with excitation at 530 nm and emission at 590 nm.
(§4) The measured results was calculated by the following formula: PG(%)=100×(Mean Ftest−Mean Ftime0)/(Mean Fctrl−Mean Ftime0)] If(Mean Ftest−Mean Ftime0)<0, then PG(%)=100×(Mean Ftest−Mean Ftime0)/(Mean Ftime0−Mean Fblank) wherein PG represents percent growth;
(§5) A decrease of 50% or more (≧50%) in fluorescent intensity relative to the vehicle-treated control indicates significant cytostatic or cytotoxic activity, and semi-quantitative values for IC50, TGI and LC50 were then determined by nonlinear regression using GraphPad Prism (GraphPad Software, USA).
(§6) IC50 (50% Inhibition Concentration); Test compound concentration where the increase from times in the number or mass of treated cells was only 50% as much as the corresponding increase in the vehicle-control at the end of experiment.
(§7) TGI (Total Growth Inhibition): Test compound concentration where the number or mass of treated cells at the end of experiment was equal to that at time0.
(§8) LC50 (50% Lethal Concentration): Test compound concentration where the number or mass of treated cells at the end of experiment was half that at time.
(§9) The assays were used to detect changes in cell proliferation based on the ability of viable cells to cause alamarBlue to change from its oxidized to a reduced form. With the results obtained from the alamarBlue reaction, cell proliferation can be quantified and metabolic activity of viable cell can be examined.
(§10) The succinate derivatives of compounds IIa-1, IIb-1 and VII-1 were tested for possible effect on the proliferation of four human tumor cell lines ˜MCF-7 (breast), HT-29 (colon), Hep3B (liver), and NCl—H 460 (lung) as well as one human umbilical vein endothelial cell (HUVEC) at assay concentration from 0.01 to 100 μM, through serial 10-fold dilution.

In data set [2] the test system is prostate cancer (PC-3). The data set is described as follows: Cytotoxicity Assays Method C, PC-3. The data set is classed as cell-based. The settings on record: 72 h, read-out: IC50 PC-3.
The test system of data set [3] is Hep 3B. The data set is described as follows: Cytotoxicity Assays Method A (alamarBlue anti-proliferative assay), Hep 3B. The data set is classed as cell-based.
From the text: as §1, §2, §3, §4, §5, §6, §7, §8, §9, §10

Data set [4] deals with HT-29. The data set is described as follows: Cytotoxicity Assays Method A (alamarBlue anti-proliferative assay), HT-29. The data set is classed as cell-based.
From the text: as §1, §2, §3, §4, §5, §6, §7, §8, §9, §10

Data set [5] concerns p-gp-expressing epidermoid carcinoma of the nasopharynx (KB-VIN). The data set is described as follows: Cytotoxicity Assays Method C, KB-VIN. It counts as cell-based. The settings on record: Homo sapiens, KBVIN, 72 h, 50% reduction in cell number after 72 hr of incubation. The text has this: Cytotoxicity Assays Method C (KB, KB-VIN, AS49, HCT-8, PC-3) [K. H. Lee et. al. Planta Med. 54, 308-312 (1998), Monk A et. al. J. Natl. Cancer Inst. 83, 757-766 (1991).] The cell lines included epidermoid caninoma of the nasopharynx (KB), p-gp-expressing epidermoid caninoma of the nasopharynx (KB-VIN), lung carcinoma (A-549), ileocecal carinoma (HCT-8) and prostate cancer (PC-3) cell lines.

The subject of data set [6] is lung carcinoma (A-549). The data set is described as follows: Cytotoxicity Assays Method C, A-549. The settings on record: Homo sapiens, A549, 72 h, read-out: IC50 A549. It counts as cell-based.
Data set [7] relates to ileocecal carcinoma (HCT-8). The data set is described as follows: Cytotoxicity Assays Method C, HCT-8. The settings on record: Homo sapiens, HCT-8, 72 h, read-out: IC50 HCT-8. The data set is classed as cell-based.
The subject of data set [8] is epidermoid carcinoma of the nasopharynx (KB). The data set is described as follows: Cytotoxicity Assays Method C, KB. The data set is classed as cell-based. The settings on record: 72 h, read-out: IC50 KB.
Data set [9] relates to MCF-7. The data set is described as follows: Cytotoxicity Assays Method A (alamarBlue anti-proliferative assay), MCF-7. The data set is classed as cell-based.
From the text: as §1, §2, §3, §4, §5, §6, §7, §8, §9, §10

For data set [10], the system named is HUVEC. The data set is described as follows: Cytotoxicity Assays Method A (alamarBlue anti-proliferative assay), HUVEC. It counts as cell-based.
From the text: as §1, §2, §3, §4, §5, §6, §7, §8, §9, §10

Experiment in data set [11]: as above
It counts as cell-based. The settings on record: human, HUVEC (human umbilical vein endothelial cells), 72-hour incubation, alamarBlue.
From the text: as §1, §2, §3, §4, §5, §6, §7, §8, §9, §10

Data set [12] concerns Human promyeloid leukemia HL-60 cells. The data set is described as follows: Cytotoxicity Assays Method B (MTT proliferation assay), HL-60. The data set is classed as cell-based. Conditions: Homo sapiens, read-out: IC50 (concentration at which 50% of the cells are inhibited from growing). As for the experimental part:
Cytotoxicity Assays Method B (HL-60) [H. M. Chen et al. Chin. Pharm. J. 53, 157-167 (2001)]
Human promyeloid leukemia HL-60 cells were obtained from the American Type
Culture Collection (Manassas, Va., USA) and the Culture Collection and Research Center(CCRC) (Tai wan, ROC). Human promyeloid leukemia HL-60 cells were cultured in suspension in RPMI-1640 medium (GIBCO, Grand Is land, USA), containing 10% fetal bovine se rum (GIBCO, Grand Is land, USA), 100 unit/mL penicillin, […] streptomycin and 1% L-glutamine at 37° C. in a humidified atmosphere of 5% CO2 in air. Cells were split every day to maintain the cell numbers between 2−5×10^5/mL. Cell numbers were assessed by the standard procedure of leukocyte counting using a hemocytometer and cell viability was checked by the ability of cells to exclude Trypan blue.
Cellular proliferation was determined by the MTT [3-(4,5-dimethylthiazol-2-yl)-2,5-diphenyltetrazolium bromide] as say. Briefly, […] of MTT (5 mg/mL) was added to each well of 96-well plates containing 1×10^5 cells after treatment with different concentrations of samples for 4 days. The reaction was stopped after 2 h by adding […] of 0.04 N HCl in isopropanol and the OD570 nm was determined by a minicolorimetric reader. Each concentration treatment was performed in triplicate.

Read-outs that look alike come from different tables or passages of the source.

With `O=C(O)CCC(=O)OCc1cc2c(s1)C(=O)c1sccc1C2=O` [IIa-1, Mono-[1-(4,8-dioxo-4,8-dihydrobenzo[1,2-b:5,4-b′]dithiophen-2-yl)-methyl]succinate], the IC50 in [1] (Homo sapiens, NCI-H460, 72 h, read-out: IC50 (50% Inhibition Concentration)) amounted to 0.81 µM; in data set [2] it was 1.35 µM; in data set [3] (Homo sapiens, Hep3B, 72 h, read-out: IC50 (50% Inhibition Concentration)), 2.8 µM; in [4] (Homo sapiens, HT-29, 72 h, read-out: IC50 (50% Inhibition Concentration)) it was 11 µM; in data set [5] it was 4.47 µM; in [6] it was 4.03 µM. In addition, the IC50 was 4.03 µM in [7]; 2.02 µM in data set [8]; 3.4 µM in data set [9] (Homo sapiens, MCF7, 72 h, read-out: IC50 (50% Inhibition Concentration)); 10 µM in data set [10] (Homo sapiens, 72 h, read-out: IC50 (50% Inhibition Concentration)); 0.47 µM in data set [12] (HL-60, 96 h). Further, the CC50 in data set [1] (Homo sapiens, NCI-H460, 72-hour incubation, alamarBlue, read-out: LC50 (50% Lethal Concentration)) stood at 3.5 µM; in data set [3] (Homo sapiens, Hep3B, Hep-3B, 72-hour incubation, alamarBlue, read-out: LC50 (50% Lethal Concentration)), 9.2 µM; in [9] (Homo sapiens, MCF7, MCF-7, 72-hour incubation, alamarBlue, read-out: LC50 (50% Lethal Concentration)), 14 µM. The “TGI (Total growth Inhibition)” value turned out to be 1.7 µM in data set [1] (NCI-H460, 72-hour incubation, alamarBlue); 5.1 µM in data set [3] (Hep-3B, 72-hour incubation, alamarBlue); 22 µM in data set [4] (HT-29, 72-hour incubation, alamarBlue); 6.9 µM in data set [9] (MCF-7, 72-hour incubation, alamarBlue); 19 µM in data set [10] (72-hour incubation, alamarBlue). The “cytotoxicity against Hep3B (in words)” value in [3] (Hep3B, summary of Table 1) is on record as “significant activity”. This compound displayed an LC50 (50% lethal concentration) in data set [4] (Homo sapiens, HT-29, 72-hour incubation, alamarBlue) of 45 µM. In addition, in [9] (MCF-7, summary of Table 1), the “cytotoxicity against MCF-7 (in words)” value was “significant activity”. In [11], this compound returned an LC50 (50% lethal concentration) at 72 h of 34 µM.
On to `O=C(O)CCCC(=O)OCc1cc2c(s1)C(=O)c1sccc1C2=O` [IIa-2, Mono-[1-(4,8-dioxo-4,8-dihydrobenzo[1,2-b:5,4-b′]dithiophen-2-yl)-methyl]pentanedioate], for which the melting point is 220 °C (dec.). Further, in data set [2], the IC50 is 0.75 µM. The IC50 in [5] was determined as 1.39 µM. Further, the IC50 in [6] turned out to be 2.08 µM. In addition, the IC50 in data set [7] was found to be 1.66 µM. For the same compound, in [8], the IC50 worked out at 2.22 µM. In [12] (96 h, HL-60, MTT, treatment for 4 days), the IC50 is 0.7 µM.
